Test results published in the NIST ThermoML archive (doi:10.1021/acs.jced.6b00350).
Values joined by “and” are separate entries in the source; they are usually repeats but may differ in a detail not shown here. Equal entries are not always repeated.

Conditions: Liquid, Hot wire method

FC(F)CC(F)(F)F [1,1,1,3,3-pentafluoropropane]
Conditions	thermal conductivity
262.46 K, 31214 kPa	0.1107 W/m/K
262.47 K, 25250 kPa	0.1091 W/m/K
262.47 K, 31210 kPa	0.1107 W/m/K
262.48 K, 8852 kPa	0.1036 W/m/K
262.48 K, 14086 kPa	0.1051 W/m/K
262.48 K, 14126 kPa	0.1053 W/m/K
262.49 K, 4309 kPa	0.1016 W/m/K
262.49 K, 4315 kPa	0.1017 W/m/K
262.5 K, 19581 kPa	0.1068 W/m/K
262.51 K, 19565 kPa	0.1063 W/m/K
262.54 K, 274 kPa	0.09981 W/m/K
262.55 K, 264 kPa	0.09976 W/m/K
262.84 K, 36891 kPa	0.1121 W/m/K
262.84 K, 36917 kPa	0.112 W/m/K
262.84 K, 43922 kPa	0.1137 W/m/K
262.85 K, 43951 kPa	0.1138 W/m/K
262.85 K, 51258 kPa	0.1158 W/m/K
262.86 K, 51253 kPa	0.1158 W/m/K
262.86 K, 58802 kPa	0.1175 W/m/K
262.87 K, 58823 kPa	0.1177 W/m/K
262.87 K, 68778 kPa	0.12 W/m/K
262.87 K, 68811 kPa	0.1201 W/m/K
262.89 K, 68892 kPa	0.1203 W/m/K
262.9 K, 68869 kPa	0.1204 W/m/K
262.97 K, 25291 kPa	0.1088 W/m/K
262.97 K, 31137 kPa	0.1104 W/m/K
262.97 K, 31171 kPa	0.1105 W/m/K
262.98 K, 25286 kPa	0.1085 W/m/K
263 K, 8795 kPa	0.1032 W/m/K
263 K, 14094 kPa	0.105 W/m/K
263 K, 14117 kPa	0.1048 W/m/K
263.01 K, 8802 kPa	0.1032 W/m/K
263.01 K, 19580 kPa	0.1068 W/m/K
263.01 K, 19587 kPa	0.1069 W/m/K
263.02 K, 4283 kPa	0.1017 W/m/K
263.04 K, 4280 kPa	0.1019 W/m/K
263.09 K, 251 kPa	0.09992 W/m/K
263.09 K, 258 kPa	0.1003 W/m/K
263.37 K, 43936 kPa	0.1139 W/m/K
263.37 K, 51250 kPa	0.1158 W/m/K
263.37 K, 68817 kPa	0.1201 W/m/K
263.38 K, 43899 kPa	0.1139 W/m/K
263.38 K, 51246 kPa	0.1158 W/m/K
263.38 K, 58767 kPa	0.1179 W/m/K
263.38 K, 58789 kPa	0.1175 W/m/K
263.38 K, 68795 kPa	0.12 W/m/K
263.39 K, 68867 kPa	0.1202 W/m/K
263.39 K, 68877 kPa	0.1202 W/m/K
281.24 K, 123 kPa	0.09294 W/m/K
281.26 K, 5085 kPa	0.09534 W/m/K
281.26 K, 10502 kPa	0.09742 W/m/K
281.26 K, 16109 kPa	0.09972 W/m/K
281.27 K, 5081 kPa	0.09537 W/m/K
281.27 K, 10497 kPa	0.09773 W/m/K
281.27 K, 16120 kPa	0.09962 W/m/K
281.27 K, 36450 kPa	0.1067 W/m/K
281.28 K, 29163 kPa	0.1037 W/m/K and 0.1042 W/m/K
281.28 K, 36455 kPa	0.1069 W/m/K
281.29 K, 22340 kPa	0.1017 W/m/K and 0.1016 W/m/K
281.31 K, 44258 kPa	0.1094 W/m/K
281.32 K, 44270 kPa	0.1086 W/m/K
281.36 K, 52956 kPa	0.1121 W/m/K
281.37 K, 61439 kPa	0.1132 W/m/K
281.37 K, 61447 kPa	0.1138 W/m/K
281.39 K, 68582 kPa	0.1153 W/m/K
281.4 K, 68575 kPa	0.1156 W/m/K
281.68 K, 36448 kPa	0.1069 W/m/K
281.69 K, 123 kPa	0.09324 W/m/K
281.69 K, 16102 kPa	0.09989 W/m/K
281.69 K, 16110 kPa	0.0999 W/m/K
281.69 K, 36460 kPa	0.1069 W/m/K
281.7 K, 123 kPa	0.09319 W/m/K
281.7 K, 10499 kPa	0.09772 W/m/K
281.7 K, 29156 kPa	0.1046 W/m/K
281.71 K, 10506 kPa	0.09793 W/m/K
281.71 K, 29164 kPa	0.1045 W/m/K
281.71 K, 44250 kPa	0.109 W/m/K
281.72 K, 5099 kPa	0.09526 W/m/K
281.72 K, 22328 kPa	0.1023 W/m/K
281.72 K, 22339 kPa	0.1018 W/m/K
281.72 K, 44261 kPa	0.1096 W/m/K
281.73 K, 5092 kPa	0.09542 W/m/K
281.74 K, 52967 kPa	0.1113 W/m/K
281.74 K, 61451 kPa	0.1132 W/m/K
281.75 K, 52979 kPa	0.1116 W/m/K
281.75 K, 61458 kPa	0.1139 W/m/K
281.78 K, 68577 kPa	0.1148 W/m/K
281.78 K, 68579 kPa	0.1154 W/m/K
282.14 K, 36443 kPa	0.1066 W/m/K
282.14 K, 36448 kPa	0.1061 W/m/K
282.16 K, 44239 kPa	0.109 W/m/K
282.16 K, 44256 kPa	0.1087 W/m/K
282.17 K, 29157 kPa	0.1038 W/m/K
282.17 K, 29166 kPa	0.1045 W/m/K
282.18 K, 16109 kPa	0.09967 W/m/K
282.18 K, 52974 kPa	0.1114 W/m/K
282.18 K, 61442 kPa	0.114 W/m/K
282.18 K, 61445 kPa	0.1137 W/m/K
282.19 K, 16097 kPa	0.09999 W/m/K
282.19 K, 52971 kPa	0.1111 W/m/K
282.2 K, 10491 kPa	0.09788 W/m/K
282.2 K, 22326 kPa	0.1018 W/m/K
282.2 K, 22330 kPa	0.1022 W/m/K
282.21 K, 122 kPa	0.09344 W/m/K
282.21 K, 123 kPa	0.09288 W/m/K
282.21 K, 10493 kPa	0.0975 W/m/K
282.21 K, 68577 kPa	0.1158 W/m/K
282.22 K, 5074 kPa	0.09546 W/m/K
282.22 K, 68599 kPa	0.1157 W/m/K
282.23 K, 5088 kPa	0.0957 W/m/K
282.64 K, 61432 kPa	0.1136 W/m/K
282.65 K, 36437 kPa	0.1064 W/m/K
282.65 K, 44235 kPa	0.109 W/m/K
282.65 K, 61439 kPa	0.1136 W/m/K
282.66 K, 44247 kPa	0.1092 W/m/K
282.67 K, 52971 kPa	0.1109 W/m/K
282.67 K, 52972 kPa	0.1115 W/m/K
282.68 K, 29156 kPa	0.104 W/m/K
282.68 K, 29162 kPa	0.104 W/m/K
282.68 K, 68589 kPa	0.1157 W/m/K
282.69 K, 68577 kPa	0.1155 W/m/K
282.71 K, 16110 kPa	0.09975 W/m/K and 0.09954 W/m/K
282.72 K, 22340 kPa	0.1019 W/m/K
282.73 K, 22342 kPa	0.1021 W/m/K
282.74 K, 10500 kPa	0.09762 W/m/K
282.77 K, 5087 kPa	0.09576 W/m/K
282.78 K, 123 kPa	0.09344 W/m/K and 0.09326 W/m/K
282.78 K, 5079 kPa	0.0959 W/m/K
283.17 K, 61441 kPa	0.1135 W/m/K
283.17 K, 61445 kPa	0.1138 W/m/K
283.19 K, 68547 kPa	0.1156 W/m/K
283.19 K, 68582 kPa	0.1158 W/m/K
283.2 K, 36442 kPa	0.1068 W/m/K
283.2 K, 36446 kPa	0.1068 W/m/K
283.2 K, 44231 kPa	0.109 W/m/K
283.2 K, 44239 kPa	0.1089 W/m/K
283.2 K, 52973 kPa	0.1113 W/m/K
283.21 K, 52984 kPa	0.1112 W/m/K
